Measured values: patent US10815226B2, “Heteroaryl compounds as inhibitors of necrosis, composition and application thereof” (ACCRO BIOSCIENCE INC., priority 2016, dated 2020)

What was measured:
HT29 cells [1] = assay: HT29 cell necroptosis assay (TNF-α/Smac mimetic/z-VAD induced necrosis, viability); assay type: cell-based, human; conditions: 10 μM test compound pretreated one hour, TNF-α (40 ng/mL), Smacmimetic (100 nM), z-VAD (20 μM) for 48 hours
Method: Biological in Vitro HT29 Cell Assay.
(§1) The efficacies of RIP1 inhibitors were tested in vitro using human colon cancer TH29 cells in a necroptosis assay. For the assay, Cells were added to 96-well plates and then 10 μM of the test compound was pretreated for one hour. Then the cells were treated with TNF-α (40 ng/mL), Smacmimetic (100 nM) and z-VAD (20 μM) for 48 hours, and the viability was quantified. DMSO pretreatment group was negative control, Nec-1 pretreatment group was positive control.

L929 cells = assay: L929 cell necroptosis assay (same protocol as the HT29 cell assay); assay type: cell-based, mouse; conditions: for L929 Inhibition (10 μM): 10 μM test compound, protocol as HT29 assay; for IC50: Mus musculus
Method: as §1, with “For the assay, Cells were added to 96-well plates and then 10 μM of the test compound was pretreated for one hour.” left out
Biological In Vitro L929 Cell Assay.
Mouse L-cells NCTC 929 (L929) were acquired from ATCC (cat. no. ATCC CCL-1) and banked in liquid nitrogen. The assay protocol was the same as described for the HT29 cell assay.

HT29 cells [2] = assay: HT29 cell necroptosis assay (TNF-α/Smac mimetic/z-VAD induced necrosis, viability); assay type: cell-based, human; conditions: Homo sapiens, HT-29, HT29 cells, TNF-α/Smacmimetic/z-VAD induced necrosis

SMILES | HT29 Inhibition (10 μM) (HT29 cells [1]) [%] | L929 Inhibition (10 μM) (L929 cells) [%] | IC50 (HT29 cells [2]; values in nM) [µM] | also measured
Nc1nc2ccc(-c3cnc(Cl)c(NC(=O)c4cccc(F)c4)c3)cc2s1 [Compound A1] | 112 | 48 | – | –
CC(=O)Nc1nc2ccc(-c3cnc(Cl)c(NC(=O)c4cccnc4)c3)cc2s1 [Compound A3] | 7 | 1 | – | –
CC(=O)Nc1nc2ccc(-c3cnc(Cl)c(NC(=O)c4ccncc4)c3)cc2s1 [Compound A4] | 25 | 1 | – | –
CC(=O)Nc1nc2ccc(-c3cncc(NC(=O)c4cccc(F)c4)c3)cc2s1 [Compound A5] | 50 | 90 | – | –
CC(=O)Nc1nc2ccc(-c3cncc(NC(=O)Cc4ccccc4)c3)cc2s1 [Compound A12] | 11 | 80 | – | IC50 (HT29 cells [2]; values given in μM): 2.56 µM
CC(=O)Nc1nc2ccc(-c3cncc(NC(=O)Cc4ccccc4Cl)c3)cc2s1 [Compound A13] | 80 | 94 | – | IC50 (HT29 cells [2]; values given in μM): 5.24 µM
CC(=O)Nc1nc2ccc(-c3cncc(NC(=O)Cc4cccc(Cl)c4)c3)cc2s1 [Compound A14] | 71 | 95 | – | –
CC(=O)Nc1nc2ccc(-c3cncc(NC(=O)Cc4ccc(Cl)cc4)c3)cc2s1 [Compound A15] | 95 | 87 | – | –
CC(=O)Nc1nc2ccc(-c3cncc(NC(=O)Cc4ccccc4F)c3)cc2s1 [Compound A16] | 36 | 86 | – | –
CC(=O)Nc1nc2ccc(-c3cncc(NC(=O)Cc4ccc(F)cc4)c3)cc2s1 [Compound A18] | 24 | 51 | – | –
CC(=O)Nc1nc2ccc(-c3cc(NC(=O)Cc4ccccc4)ccn3)cc2s1 [Compound A19] | 1 | 22 | – | –
CC(=O)Nc1nc2ccc(-c3cccc(NC(=O)Cc4ccccc4)c3)cc2s1 [Compound A20] | 11 | 69 | – | –
CC(=O)Nc1nc2ccc(-c3cnc(Cl)c(NC(=O)Cc4ccccc4)c3)cc2s1 [Compound A21] | 28 | 42 | – | IC50 (HT29 cells [2]; values given in μM): 16.5 µM
COc1ncc(-c2ccc3nc(NC(C)=O)sc3c2)cc1NC(=O)Cc1ccccc1 [Compound A22] | 66 | 42 | – | –
CC(=O)Nc1nc2ccc(-c3cnc(C)c(NC(=O)Cc4ccccc4)c3)cc2s1 [Compound A23] | 104 | 42 | 0.67 | –
CC(=O)Nc1nc2ccc(-c3cnc(Cl)c(NC(=O)Cc4ccccc4Cl)c3)cc2s1 [Compound A24] | 113 | 42 | 0.527 | –
CC(=O)Nc1nc2ccc(-c3cnc(C)c(NC(=O)CC4CCCCC4)c3)cc2s1 [Compound A25] | 68 | – | 0.255 | –
CC(=O)Nc1nc2ccc(-c3cnc(Cl)c(NC(=O)Cc4ccc(OCCOCCNC(=O)OC(C)(C)C)cc4)c3)cc2s1 [Compound A26] | 30 | 42 | – | –
CC(=O)Nc1nc2ccc(-c3cnc(Cl)c(NC(=O)Cc4ccc(OCCOCCNC(=O)CCCCCNC(=O)CCCC[C@@H]5SC[C@@H]6NC(=O)N[C@@H]65)cc4)c3)cc2s1 [Compound A27] | 48 | 42 | – | –

SMILES | HT29 Inhibition (10 μM) (HT29 cells [1]) [%] | L929 Inhibition (10 μM) (L929 cells) [%] | IC50 (HT29 cells [2]; values in nM) [µM] | also measured
CC(=O)Nc1nc2ccc(-c3cccc(NC(=O)Cc4ccccc4Cl)c3)cc2s1 [Compound A28] | 34 | 45 | – | –
CC(=O)Nc1nc2ccc(-c3cc(NC(=O)Cc4ccccc4Cl)ccn3)cc2s1 [Compound A29] | 81 | 45 | – | –
CC(=O)Nc1nc2ccc(-c3ccnc(NC(=O)Cc4ccccc4Cl)c3)cc2s1 [Compound A30] | 38 | 45 | – | –
Cc1ncc(-c2ccc3nc(NC(=O)CCCCCNC(=O)OC(C)(C)C)sc3c2)cc1NC(=O)Cc1ccccc1 [Compound A31] | 87 | – | – | IC50 (HT29 cells [2]; values given in μM): 3.4 µM
CC(=O)Nc1nc2ccc(-c3cnc(C)c(NC(=O)OC4CCCCC4)c3)cc2s1 [Compound A36, Cyclohexyl (5-(2-acetamidobenzo[d]thiazol-6-yl)-2-methylpyridin-3-yl)carbamate] | – | – | 0.03 | IC50 (L929 cells; values in nM): 5 nM
CC(=O)Nc1nc2ccc(-c3cnc(C)c(NC(=O)CN4CCCCC4)c3)cc2s1 [Compound A40] | 79 | – | – | IC50 (HT29 cells [2]; values given in μM): 1.1 µM
CC(=O)Nc1nc2ccc(-c3cnc(C)c(NC(=O)CC4CCCC4)c3)cc2s1 [Compound A43] | 78 | – | 0.431 | –
CC(=O)Nc1nc2ccc(-c3cnc(C)c(NC(=O)CC(C)C)c3)cc2s1 [Compound A44] | 47 | – | – | IC50 (HT29 cells [2]; values given in μM): 2.69 µM
CC(=O)Nc1nc2ccc(-c3cnc(C)c(NC(=O)CC(C)(C)C)c3)cc2s1 [Compound A45] | – | – | 0.43 | IC50 (L929 cells; values given in μM): 1010 nM
CC(=O)Nc1cn2cc(-c3cnc(C)c(NC(=O)CC4CCCCC4)c3)ccc2n1 [Compound A46] | – | – | 0.9 | IC50 (L929 cells; values given in μM): 2480 nM
CCc1ncc(-c2ccc3nc(NC(C)=O)sc3c2)cc1NC(=O)OC1CCCCC1 [Compound A54] | – | – | 0.075 | IC50 (L929 cells; values in nM): 200 nM
CC(=O)Nc1nc2ccc(-c3ccc(C)c(NC(=O)OC4CCCCC4)n3)cc2s1 [Compound A56, Cyclohexyl (6-(2-acetamidobenzo[d]thiazol-6-yl)-3-methylpyridin-2-yl) Carbamate] | – | – | 0.7 | IC50 (L929 cells; values in nM): 500 nM
CC(=O)Nc1nc2ccc(-c3cnc(C)c(NC(=O)OC4CCCCC4)c3)nc2s1 [Compound A57] | – | – | 0.092 | IC50 (L929 cells; values in nM): 30 nM
CC(=O)Nc1nc2cc(-c3cnc(C)c(NC(=O)OC4CCCCC4)c3)ccn2n1 [Compound A58] | – | – | – | IC50 (L929 cells; values given in μM): 1000 nM; IC50 (HT29 cells [2]; values given in μM): 1 µM
Cc1ncc(-c2ccc3nc(NC(=O)C4CC4)sc3c2)cc1NC(=O)OC1CCCCC1 [Compound A61] | – | – | 0.0012 | IC50 (L929 cells; values in nM): 3 nM
CC(=O)Nc1nc2ccc(-c3cnc(C)c(NC(=O)OC4CCC5(CC4)CC5)c3)cc2s1 [Compound A95] | – | – | 0.053 | –
CC(=O)Nc1ccc2cc(-c3cnc(C)c(NC(=O)OC4CCCCC4)c3)ccc2n1 [Compound A99] | – | – | 0.441 | –
Cc1ncc(-c2ccc3nc(NC(=O)c4ccccc4)sc3c2)cc1NC(=O)OC1CCCCC1 [Compound A104] | – | – | 0.06 | –
